Laboratory results as given in ChEMBL document CHEMBL2331441, “Phosphodiesterase inhibitors. Part 5: hybrid PDE3/4 inhibitors as dual bronchorelaxant/anti-inflammatory agents for inhaled administration” (Bioorg Med Chem Lett, 2013).

Key:
[1] = biological target: T1, 3',5'-cyclic-AMP phosphodiesterase 4B (Homo sapiens, UniProt Q07343); experiment: Ratio of IC50 for KCA-1450 to compound IC50 for PDE4B (unknown origin) by radiochemical assay
[2] = biological target: T1, 3',5'-cyclic-AMP phosphodiesterase 4B; experiment: Inhibition of PDE4B (unknown origin) by radiochemical assay
[3] = biological target: cGMP-inhibited 3',5'-cyclic phosphodiesterase 3A (Homo sapiens, UniProt Q14432); experiment: Inhibition of PDE3A (unknown origin) by radiochemical assay
Chain of cGMP-inhibited 3',5'-cyclic phosphodiesterase 3A (Q14432 whole entry): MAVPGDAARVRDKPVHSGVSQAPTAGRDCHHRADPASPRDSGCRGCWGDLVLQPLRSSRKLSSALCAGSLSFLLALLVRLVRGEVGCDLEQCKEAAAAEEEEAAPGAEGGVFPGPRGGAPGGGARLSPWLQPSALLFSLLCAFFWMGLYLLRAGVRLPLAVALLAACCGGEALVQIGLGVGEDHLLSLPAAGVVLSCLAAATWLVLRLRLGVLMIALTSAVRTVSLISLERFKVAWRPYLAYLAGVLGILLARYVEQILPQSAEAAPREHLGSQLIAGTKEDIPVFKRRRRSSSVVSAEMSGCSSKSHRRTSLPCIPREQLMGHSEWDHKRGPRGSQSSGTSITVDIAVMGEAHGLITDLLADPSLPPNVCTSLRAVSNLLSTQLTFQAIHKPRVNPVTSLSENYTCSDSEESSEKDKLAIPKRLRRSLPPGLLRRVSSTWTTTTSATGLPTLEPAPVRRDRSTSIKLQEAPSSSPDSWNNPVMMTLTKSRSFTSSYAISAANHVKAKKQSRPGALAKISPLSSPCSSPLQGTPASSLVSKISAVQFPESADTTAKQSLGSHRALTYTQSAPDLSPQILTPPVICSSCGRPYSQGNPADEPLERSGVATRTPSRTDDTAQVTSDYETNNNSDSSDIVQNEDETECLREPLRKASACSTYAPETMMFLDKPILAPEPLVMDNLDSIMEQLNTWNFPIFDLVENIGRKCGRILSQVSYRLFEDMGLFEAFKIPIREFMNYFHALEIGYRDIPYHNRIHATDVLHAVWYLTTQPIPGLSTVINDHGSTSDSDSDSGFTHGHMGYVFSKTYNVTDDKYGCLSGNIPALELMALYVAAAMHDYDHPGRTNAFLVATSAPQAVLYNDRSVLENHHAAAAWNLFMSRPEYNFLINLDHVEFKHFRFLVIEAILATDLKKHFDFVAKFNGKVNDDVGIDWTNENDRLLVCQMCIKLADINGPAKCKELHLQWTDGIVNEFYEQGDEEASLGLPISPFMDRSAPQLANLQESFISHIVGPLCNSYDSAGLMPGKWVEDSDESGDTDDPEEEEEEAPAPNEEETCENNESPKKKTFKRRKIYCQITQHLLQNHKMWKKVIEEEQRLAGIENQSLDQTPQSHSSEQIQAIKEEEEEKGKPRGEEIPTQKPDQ

[4] = test system: Cavia porcellus; experiment: Bronchodilatory activity in guinea pig assessed as inhibition of histamine-induced bronchoconstriction at 0.1 mg/kg, iv; assay type: functional
[5] = test system: Rattus norvegicus; experiment: Inhibition of LPS-induced leukocyte influx into rat lung at 100 ug/kg administered intratracheally 3 hrs prior LPS challenge; assay type: functional; conditions: inhaled or nasal
[6] = organism: Homo sapiens; experiment: Selectivity ratio of IC50 for PDE3A (unknown origin) to IC50 for PDE4B (unknown origin)

T1 sequence (Q07343 whole entry): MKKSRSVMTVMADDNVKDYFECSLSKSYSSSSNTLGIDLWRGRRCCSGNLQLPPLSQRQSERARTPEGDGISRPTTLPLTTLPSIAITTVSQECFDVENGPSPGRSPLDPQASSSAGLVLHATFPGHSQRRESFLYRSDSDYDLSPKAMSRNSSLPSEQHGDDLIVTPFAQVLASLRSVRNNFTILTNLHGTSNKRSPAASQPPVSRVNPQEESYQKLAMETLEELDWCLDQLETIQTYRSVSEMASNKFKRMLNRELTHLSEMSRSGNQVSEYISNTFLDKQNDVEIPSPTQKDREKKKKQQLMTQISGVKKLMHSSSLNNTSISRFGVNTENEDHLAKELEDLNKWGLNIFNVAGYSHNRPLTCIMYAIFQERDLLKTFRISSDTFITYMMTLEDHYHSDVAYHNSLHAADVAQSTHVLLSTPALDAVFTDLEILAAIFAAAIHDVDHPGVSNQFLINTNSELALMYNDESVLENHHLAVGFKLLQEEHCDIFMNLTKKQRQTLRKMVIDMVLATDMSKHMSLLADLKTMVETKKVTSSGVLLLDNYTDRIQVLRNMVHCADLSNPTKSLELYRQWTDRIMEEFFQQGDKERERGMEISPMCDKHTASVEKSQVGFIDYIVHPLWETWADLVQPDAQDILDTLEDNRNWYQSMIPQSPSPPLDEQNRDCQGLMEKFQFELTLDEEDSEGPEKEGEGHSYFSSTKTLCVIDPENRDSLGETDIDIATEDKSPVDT

Ratio IC50 [1] | IC50 [2] [nM] | IC50 [3] [nM] | Ratio IC50 [6] | SMILES | inhibition in vivo at 0.1 mg/kg [4] [%] | inhibition in vivo at 0.1 mg/kg [5] [%]
23 | 0.3 | 15 | – | COc1ccc(C2=NN(CCCCOc3ccc(C4=NNC(=O)CC4C)cc3)C(=O)CC2C)c2cc(C(F)(F)F)nn12 (stereo not given) | – | –
– | 20 | 2.7 | – | CCc1cc2c(-c3ccc(=O)n(CCCCOc4ccc(C5=NNC(=O)CC5C)cc4)n3)ccc(OC)n2n1 (stereo not given) | 71 | –
– | 6.7 | 5 | – | COc1ccc(C2=NN(CCCCOc3ccc(C4=NNC(=O)CC4)c(F)c3F)C(=O)C2(C)C)n2cc(C(F)(F)F)nc12 | 87 | 56
– | 2.2 | 5.1 | – | COc1ccc(C2=NN(CCCCOc3ccc(C4=NNC(=O)CC4)c(F)c3F)C(=O)CC2C)c2cc(C(F)(F)F)nn12 (stereo not given) | – | –
– | 0.38 | 63 | – | COc1ccc(C2=NN(CCCCOc3ccc(C4=NNC(=O)C4(C)C)c(F)c3F)C(=O)C2(C)C)c2sc(C(F)(F)F)nc12 | 36 | –
– | 2.7 | 0.27 | – | CCc1cc2c(C3=NN(CCCCOc4ccc(C5=NNC(=O)CC5C)cc4)C(=O)CC3)ccc(OC)n2n1 (stereo not given) | 28 | –
– | 0.3 | 58 | – | COc1ccc(C2=NN(CCCCOc3ccc(C4=NNC(=O)C4(C)C)c(F)c3)C(=O)CC2C)c2cc(C(F)(F)F)nn12 (stereo not given) | – | –
– | 0.6 | 1.7 | – | CCc1cc2c(C3=NN(CCCCOc4ccc(C5=NNC(=O)CC5C)cc4)C(=O)C3(C)C)ccc(OC)n2n1 (stereo not given) | 92 | –
– | 1.4 | 1520 | – | COc1ccc(C2=NN(CCCCOc3ccc(C4=NNC(=O)C4(C)C)cc3F)C(=O)CC2C)c2cc(C(F)(F)F)nn12 (stereo not given) | – | –
– | 3.2 | 40 | – | COc1ccc(C2=NN(CCCCOc3ccc(C4=NNC(=O)C4(C)C)c(F)c3F)C(=O)C2(C)C)n2cc(C(F)(F)F)nc12 | 76 | –
23 | 3 | 140 | – | COc1ccc(C2=NN(CCCOc3ccc(C4=NNC(=O)CC4C)cc3)C(=O)CC2C)c2cc(C(F)(F)F)nn12 (stereo not given) | – | –
– | 0.1 | 360 | – | COc1ccc(C2=NN(CCCCOc3ccc(C4=NNC(=O)CC4)cc3)C(=O)CC2C)c2cc(C(F)(F)F)nn12 (stereo not given) | – | –
– | 0.5 | 270 | – | COc1ccc(C2=NN(CCCCOc3ccc(C4=NNC(=O)C4(C)C)cc3)C(=O)CC2C)c2cc(C(F)(F)F)nn12 (stereo not given) | – | –
– | 6 | 40000 | – | COc1ccc(C2=NN(CCCCOc3ccc(-c4n[nH]c(=O)cc4C)cc3)C(=O)CC2C)c2cc(C(F)(F)F)nn12 (stereo not given) | – | –
– | 1.7 | 1.2 | – | CCc1cc2c(C3=NN(CCCCOc4ccc(C5=NNC(=O)CC5C)cc4)C(=O)CC3C)ccc(OC)n2n1 (stereo not given) | 96 | –
– | 70 | 2380 | – | COc1ccc(C2=NNC(=O)CC2C)c2cc(C(F)(F)F)nn12 (racemic) | – | –
– | 5.9 | 11 | – | CCc1cc2c(C3=NN(CCCOc4ccc(C5=NNC(=O)CC5C)cc4)C(=O)CC3C)ccc(OC)n2n1 (stereo not given) | – | –
23 | 0.2 | 72 | – | COc1ccc(C2=NN(CCCCCOc3ccc(C4=NNC(=O)CC4C)cc3)C(=O)CC2C)c2cc(C(F)(F)F)nn12 (stereo not given) | – | –
23 | 0.66 | 130 | – | COc1ccc(C2=NN(CCOc3ccc(C4=NNC(=O)CC4C)cc3)C(=O)CC2C)c2cc(C(F)(F)F)nn12 (stereo not given) | – | –
– | 0.5 | 590 | – | COc1ccc(C2=NN(CCCCOc3cccc(C4=NNC(=O)CC4C)c3)C(=O)CC2C)c2cc(C(F)(F)F)nn12 (stereo not given) | – | –
– | 0.77 | 6.9 | – | COc1ccc(C2=NN(CCCCOc3ccc(C4=NNC(=O)CC4)c(F)c3F)C(=O)C2(C)C)c2sc(C(F)(F)F)nc12 | 96 | 51
– | 20 | 38000 | – | COc1ccc(C2=NN(CCCCOc3ccc(-c4ccc(=O)[nH]n4)cc3)C(=O)CC2C)c2cc(C(F)(F)F)nn12 (stereo not given) | – | –
– | 42 | 360 | – | COc1ccc(C2=NNC(=O)C[C@@H]2C)c2cc(C(F)(F)F)nn12 | – | –
– | 3.1 | 15 | – | COc1ccc(C2=NN(CCCCOc3ccc(C4=NNC(=O)C4(C)C)c(F)c3F)C(=O)CC2C)c2cc(C(F)(F)F)nn12 (stereo not given) | – | –
– | 0.064 | 1730 | 10000 | COc1ccc(C2=NN(CCCCOc3cccc(C4=NNC(=O)C4(C)C)c3)C(=O)CC2C)c2cc(C(F)(F)F)nn12 (stereo not given) | – | –
